According to US20230042936A1, “PYRIDO[2,3-d]PYRIMIDIN-7(8H)-ONES AS CDK INHIBITORS” (PROSENESTAR LLC, priority 2020, published 2023):
pIC50: −log10 of the molar value.

Experiments:
Format in all cases: biochemical
[1] = target: CDK6/CycD3 (Homo sapiens, UniProt Q00534); assay: Kinase profiling; settings: 10 semi-logarithmic dilutions from 50 μM, singlicate
[2] = target: CDK7/CycH/MAT1 (Homo sapiens, UniProt P50613); assay: Kinase profiling; settings: 10 semi-logarithmic dilutions from 50 μM, singlicate
[3] = target: PCTAIRE1/CycY (Homo sapiens, UniProt Q00536); assay: Kinase profiling; settings: 10 semi-logarithmic dilutions from 50 μM, singlicate
[4] = target: T1, AKT1 aa1-480 (Homo sapiens, UniProt P31749); assay: Kinase profiling; settings: 10 semi-logarithmic dilutions from 50 μM, singlicate
T1 construct: AKT1 aa1-480

[5] = target: CDK2/CycE1 (Homo sapiens, UniProt P24941); assay: Kinase profiling; settings: 10 semi-logarithmic dilutions from 50 μM, singlicate
[6] = target: PIM1 (Homo sapiens, UniProt P11309); assay: Kinase profiling; settings: 10 semi-logarithmic dilutions from 50 μM, singlicate
[7] = target: CDK1/CycE1 (Homo sapiens, UniProt P06493); assay: Kinase profiling; settings: 10 semi-logarithmic dilutions from 50 μM, singlicate
[8] = target: panel of 27 kinases (CDK family members); assay: Kinase profiling, results in words; settings: from Table 1
[9] = target: CDK5/p25NCK (Homo sapiens, UniProt Q00535); assay: Kinase profiling; settings: 10 semi-logarithmic dilutions from 50 μM, singlicate
[10] = target: DYRK1A (Homo sapiens, UniProt Q13627); assay: Kinase profiling; settings: 10 semi-logarithmic dilutions from 50 μM, singlicate
[11] = target: CDK4/CycD3 (Homo sapiens, UniProt P11802); assay: Kinase profiling; settings: 10 semi-logarithmic dilutions from 50 μM, singlicate
[12] = target: CDK2/CycA2 (Homo sapiens, UniProt P24941); assay: Kinase profiling; settings: 10 semi-logarithmic dilutions from 50 μM, singlicate
[13] = target: HIPK2 (Homo sapiens, UniProt Q9H2X6); assay: Kinase profiling; settings: 10 semi-logarithmic dilutions from 50 μM, singlicate; read-out: IC50 HIPK2
[14] = target: CDK9/CycT1 (Homo sapiens, UniProt P50750); assay: Kinase profiling; settings: 10 semi-logarithmic dilutions from 50 μM, singlicate
[15] = target: CDK5/p35NCK (Homo sapiens, UniProt Q00535); assay: Kinase profiling; settings: 10 semi-logarithmic dilutions from 50 μM, singlicate
[16] = target: CDK9/CycK (Homo sapiens, UniProt P50750); assay: Kinase profiling; settings: 10 semi-logarithmic dilutions from 50 μM, singlicate
[17] = target: CDK3/CycC (Homo sapiens, UniProt Q00526); assay: Kinase profiling; settings: 10 semi-logarithmic dilutions from 50 μM, singlicate
[18] = target: CDK6/CycD1 (Homo sapiens, UniProt Q00534); assay: Kinase profiling; settings: 10 semi-logarithmic dilutions from 50 μM, singlicate
[19] = target: CDK1/CycB1 (Homo sapiens, UniProt P06493); assay: Kinase profiling; settings: 10 semi-logarithmic dilutions from 50 μM, singlicate
[20] = target: CDK4/CycD1 (Homo sapiens, UniProt P11802); assay: Kinase profiling; settings: 10 semi-logarithmic dilutions from 50 μM, singlicate
[21] = target: CDK19/CycC (Homo sapiens, UniProt Q9BWU1); assay: Kinase profiling; settings: 10 semi-logarithmic dilutions from 50 μM, singlicate
[22] = target: CDK12wt/CycK (Homo sapiens, UniProt Q9NYV4); assay: Kinase profiling; settings: 10 semi-logarithmic dilutions from 50 μM, singlicate
[23] = target: CDK3/CycE1 (Homo sapiens, UniProt Q00526); assay: Kinase profiling; settings: 10 semi-logarithmic dilutions from 50 μM, singlicate
[24] = target: T2, DYRK2 (Homo sapiens, UniProt Q92630); assay: Kinase profiling; settings: 10 semi-logarithmic dilutions from 50 μM, singlicate; read-out: IC50 DYRK2
T2 sequence (Q92630 1-601): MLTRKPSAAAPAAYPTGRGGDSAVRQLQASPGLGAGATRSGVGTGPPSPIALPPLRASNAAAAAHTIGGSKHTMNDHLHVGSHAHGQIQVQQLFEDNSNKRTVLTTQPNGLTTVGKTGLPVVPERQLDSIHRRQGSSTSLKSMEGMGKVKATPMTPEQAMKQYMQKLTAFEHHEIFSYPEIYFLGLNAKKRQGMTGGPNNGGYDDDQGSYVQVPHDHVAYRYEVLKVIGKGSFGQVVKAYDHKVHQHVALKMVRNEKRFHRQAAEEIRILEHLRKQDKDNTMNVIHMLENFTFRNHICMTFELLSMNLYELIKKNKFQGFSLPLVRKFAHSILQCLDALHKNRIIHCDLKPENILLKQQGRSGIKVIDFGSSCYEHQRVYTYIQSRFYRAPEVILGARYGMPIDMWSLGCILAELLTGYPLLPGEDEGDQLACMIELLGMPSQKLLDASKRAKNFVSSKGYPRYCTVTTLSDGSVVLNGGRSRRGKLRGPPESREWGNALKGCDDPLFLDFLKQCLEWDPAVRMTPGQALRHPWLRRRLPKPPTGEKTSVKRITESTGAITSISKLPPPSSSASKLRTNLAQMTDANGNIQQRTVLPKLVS

[25] = target: CDC7/DBF4 (Homo sapiens, UniProt O00311); assay: Kinase profiling; settings: 10 semi-logarithmic dilutions from 50 μM, singlicate; read-out: IC50 CDC7/DBF4
[26] = target: ERK1 (Homo sapiens, UniProt P27361); assay: Kinase profiling; settings: 10 semi-logarithmic dilutions from 50 μM, singlicate
[27] = target: CDK8/CycC (Homo sapiens, UniProt P49336); assay: Kinase profiling; settings: 10 semi-logarithmic dilutions from 50 μM, singlicate
Chain of CDK8/CycC (P49336 whole entry): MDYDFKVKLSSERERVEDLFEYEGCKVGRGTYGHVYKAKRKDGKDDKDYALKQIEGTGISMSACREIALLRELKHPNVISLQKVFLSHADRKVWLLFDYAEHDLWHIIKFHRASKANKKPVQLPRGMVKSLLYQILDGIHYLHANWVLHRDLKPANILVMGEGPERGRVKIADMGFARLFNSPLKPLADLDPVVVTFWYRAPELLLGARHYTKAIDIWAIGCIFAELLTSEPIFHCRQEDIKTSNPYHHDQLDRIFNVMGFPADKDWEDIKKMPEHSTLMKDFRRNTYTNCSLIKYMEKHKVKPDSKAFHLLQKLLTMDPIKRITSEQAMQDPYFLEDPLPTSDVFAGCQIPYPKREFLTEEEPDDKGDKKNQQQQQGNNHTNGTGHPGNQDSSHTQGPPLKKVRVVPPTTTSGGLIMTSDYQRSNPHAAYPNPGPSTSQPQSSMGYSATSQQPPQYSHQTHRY
Chain of CDK8/CycC (P24863 whole entry partner): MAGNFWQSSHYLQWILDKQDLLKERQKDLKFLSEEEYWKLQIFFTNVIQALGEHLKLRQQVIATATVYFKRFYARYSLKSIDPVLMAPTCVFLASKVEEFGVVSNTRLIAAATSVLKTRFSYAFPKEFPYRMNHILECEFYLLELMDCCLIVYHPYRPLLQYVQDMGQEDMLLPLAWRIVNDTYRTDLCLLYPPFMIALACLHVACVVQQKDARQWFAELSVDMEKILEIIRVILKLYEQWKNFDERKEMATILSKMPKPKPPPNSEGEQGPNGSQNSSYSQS

Chain of CDK6/CycD1 (Q00534 whole entry): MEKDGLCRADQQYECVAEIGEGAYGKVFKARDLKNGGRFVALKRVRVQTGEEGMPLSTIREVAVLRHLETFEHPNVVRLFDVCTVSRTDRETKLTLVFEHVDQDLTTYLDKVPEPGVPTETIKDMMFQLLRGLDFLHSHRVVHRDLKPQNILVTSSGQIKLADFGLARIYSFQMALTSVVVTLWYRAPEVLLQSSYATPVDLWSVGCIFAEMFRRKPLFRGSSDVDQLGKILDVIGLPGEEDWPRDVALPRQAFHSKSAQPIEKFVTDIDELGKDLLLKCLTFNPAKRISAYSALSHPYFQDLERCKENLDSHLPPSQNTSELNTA
Chain of CDK6/CycD1 (P24385 whole entry partner): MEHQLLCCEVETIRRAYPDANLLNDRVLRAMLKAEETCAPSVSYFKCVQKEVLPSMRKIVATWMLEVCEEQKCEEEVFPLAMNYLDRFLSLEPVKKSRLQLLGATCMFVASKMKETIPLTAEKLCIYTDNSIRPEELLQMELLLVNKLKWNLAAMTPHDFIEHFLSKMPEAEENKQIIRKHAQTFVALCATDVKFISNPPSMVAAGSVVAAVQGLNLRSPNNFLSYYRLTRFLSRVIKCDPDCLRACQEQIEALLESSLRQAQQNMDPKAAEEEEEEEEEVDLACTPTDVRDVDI
Chain of CDK6/CycD3 (Q00534 whole entry): as the sequence (Q00534 whole entry) above
Chain of CDK6/CycD3 (P30281 whole entry partner): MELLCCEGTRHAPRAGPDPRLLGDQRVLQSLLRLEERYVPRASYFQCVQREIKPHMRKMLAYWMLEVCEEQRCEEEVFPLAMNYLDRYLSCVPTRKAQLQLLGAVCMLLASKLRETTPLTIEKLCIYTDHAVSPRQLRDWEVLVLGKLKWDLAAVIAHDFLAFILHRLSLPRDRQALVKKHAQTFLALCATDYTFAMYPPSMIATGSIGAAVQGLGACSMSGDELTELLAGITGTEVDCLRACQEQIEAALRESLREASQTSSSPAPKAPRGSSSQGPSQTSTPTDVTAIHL
Chain of CDK9/CycT1 (P50750 whole entry): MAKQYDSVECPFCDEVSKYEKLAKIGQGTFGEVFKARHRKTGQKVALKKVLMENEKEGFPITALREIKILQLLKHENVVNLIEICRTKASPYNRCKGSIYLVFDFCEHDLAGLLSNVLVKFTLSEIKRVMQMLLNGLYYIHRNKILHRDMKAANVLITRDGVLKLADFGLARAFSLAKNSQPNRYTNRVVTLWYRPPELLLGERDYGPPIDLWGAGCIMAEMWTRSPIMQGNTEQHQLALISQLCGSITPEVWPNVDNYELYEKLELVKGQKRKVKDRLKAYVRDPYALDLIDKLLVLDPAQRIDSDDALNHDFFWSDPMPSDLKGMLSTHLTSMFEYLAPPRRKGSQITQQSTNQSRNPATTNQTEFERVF
Chain of CDK9/CycT1 (O60563 whole entry partner): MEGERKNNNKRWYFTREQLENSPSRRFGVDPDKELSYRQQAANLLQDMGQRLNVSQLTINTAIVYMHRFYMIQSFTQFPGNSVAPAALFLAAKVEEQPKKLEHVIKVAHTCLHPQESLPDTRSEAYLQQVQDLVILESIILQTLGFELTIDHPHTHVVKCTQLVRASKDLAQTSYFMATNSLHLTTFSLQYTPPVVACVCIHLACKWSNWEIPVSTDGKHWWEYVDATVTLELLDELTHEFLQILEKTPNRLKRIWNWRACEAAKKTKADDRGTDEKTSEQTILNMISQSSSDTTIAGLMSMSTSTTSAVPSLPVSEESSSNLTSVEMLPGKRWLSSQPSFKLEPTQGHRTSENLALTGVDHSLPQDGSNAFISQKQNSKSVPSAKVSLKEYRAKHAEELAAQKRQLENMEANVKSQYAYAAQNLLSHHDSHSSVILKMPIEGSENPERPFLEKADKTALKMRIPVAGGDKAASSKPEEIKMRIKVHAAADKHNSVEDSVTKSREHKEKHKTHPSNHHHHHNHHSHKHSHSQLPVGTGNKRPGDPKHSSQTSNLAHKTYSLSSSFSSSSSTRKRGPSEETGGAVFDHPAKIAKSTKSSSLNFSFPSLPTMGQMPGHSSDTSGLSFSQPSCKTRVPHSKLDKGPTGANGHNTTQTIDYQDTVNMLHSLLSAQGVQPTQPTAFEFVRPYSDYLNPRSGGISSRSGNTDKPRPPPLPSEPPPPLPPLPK
Chain of CDK9/CycK (P50750 whole entry): as the sequence (P50750 whole entry) above
Chain of CDK9/CycK (O75909 whole entry partner): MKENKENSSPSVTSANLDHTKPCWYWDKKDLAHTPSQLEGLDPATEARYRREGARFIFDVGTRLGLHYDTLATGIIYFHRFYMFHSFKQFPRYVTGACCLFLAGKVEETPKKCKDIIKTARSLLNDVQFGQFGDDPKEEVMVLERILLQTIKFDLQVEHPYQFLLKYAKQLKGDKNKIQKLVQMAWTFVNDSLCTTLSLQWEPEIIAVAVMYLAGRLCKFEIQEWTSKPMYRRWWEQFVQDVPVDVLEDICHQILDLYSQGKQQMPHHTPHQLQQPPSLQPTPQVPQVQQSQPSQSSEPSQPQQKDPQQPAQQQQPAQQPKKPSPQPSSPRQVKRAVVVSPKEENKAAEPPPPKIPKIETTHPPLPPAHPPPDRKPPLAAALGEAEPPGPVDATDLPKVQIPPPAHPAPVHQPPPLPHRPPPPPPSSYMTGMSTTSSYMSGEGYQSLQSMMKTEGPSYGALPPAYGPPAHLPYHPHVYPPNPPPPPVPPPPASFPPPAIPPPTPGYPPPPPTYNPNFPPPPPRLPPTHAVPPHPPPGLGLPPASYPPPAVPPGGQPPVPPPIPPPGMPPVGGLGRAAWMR
Chain of HIPK2 (Q9H2X6 whole entry): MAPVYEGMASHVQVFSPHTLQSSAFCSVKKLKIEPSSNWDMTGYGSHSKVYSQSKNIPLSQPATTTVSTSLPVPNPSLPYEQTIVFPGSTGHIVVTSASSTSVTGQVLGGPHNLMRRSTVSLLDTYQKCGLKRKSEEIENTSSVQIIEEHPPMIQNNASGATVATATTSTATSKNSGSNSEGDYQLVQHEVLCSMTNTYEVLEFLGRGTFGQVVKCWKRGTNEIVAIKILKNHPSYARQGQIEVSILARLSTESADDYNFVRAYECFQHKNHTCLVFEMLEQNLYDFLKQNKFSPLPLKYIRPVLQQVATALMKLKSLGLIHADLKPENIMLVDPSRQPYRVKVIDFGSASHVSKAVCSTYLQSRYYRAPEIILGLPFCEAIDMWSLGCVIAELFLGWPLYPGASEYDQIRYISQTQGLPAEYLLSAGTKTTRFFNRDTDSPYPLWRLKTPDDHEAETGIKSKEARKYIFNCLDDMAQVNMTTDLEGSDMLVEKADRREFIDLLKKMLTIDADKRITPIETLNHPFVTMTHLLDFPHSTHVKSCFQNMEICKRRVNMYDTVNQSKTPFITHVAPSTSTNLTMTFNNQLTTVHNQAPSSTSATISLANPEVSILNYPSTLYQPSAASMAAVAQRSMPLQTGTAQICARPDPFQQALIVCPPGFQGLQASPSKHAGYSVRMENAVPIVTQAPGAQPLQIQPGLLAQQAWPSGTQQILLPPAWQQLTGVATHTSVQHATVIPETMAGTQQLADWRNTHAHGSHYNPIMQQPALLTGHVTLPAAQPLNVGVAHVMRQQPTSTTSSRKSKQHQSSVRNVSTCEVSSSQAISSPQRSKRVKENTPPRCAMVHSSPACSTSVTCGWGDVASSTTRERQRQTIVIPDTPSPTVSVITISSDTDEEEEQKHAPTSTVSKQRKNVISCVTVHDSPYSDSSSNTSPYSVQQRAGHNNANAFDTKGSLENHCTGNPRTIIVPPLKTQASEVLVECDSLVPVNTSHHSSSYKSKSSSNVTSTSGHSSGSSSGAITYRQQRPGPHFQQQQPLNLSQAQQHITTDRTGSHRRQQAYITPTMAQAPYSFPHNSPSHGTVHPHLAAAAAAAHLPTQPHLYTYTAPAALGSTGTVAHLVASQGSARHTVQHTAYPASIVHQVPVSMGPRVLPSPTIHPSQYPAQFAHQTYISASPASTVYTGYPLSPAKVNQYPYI
Chain of CDK3/CycC (Q00526 whole entry): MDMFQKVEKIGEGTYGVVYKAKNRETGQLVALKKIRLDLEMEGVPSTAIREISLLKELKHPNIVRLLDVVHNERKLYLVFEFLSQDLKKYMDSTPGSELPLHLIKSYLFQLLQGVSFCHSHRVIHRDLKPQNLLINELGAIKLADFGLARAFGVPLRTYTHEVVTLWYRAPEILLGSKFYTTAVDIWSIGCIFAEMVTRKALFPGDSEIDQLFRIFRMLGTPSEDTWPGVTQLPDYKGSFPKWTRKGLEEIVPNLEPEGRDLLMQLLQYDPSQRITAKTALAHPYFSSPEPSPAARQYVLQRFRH
Chain of CDK3/CycC (P24863 whole entry partner): as the sequence (P24863 whole entry partner) above

pIC50 [1]	pIC50 [2]	pIC50 [3]	pIC50 [4]	pIC50 [5]	pIC50 [6]	pIC50 [7]	pIC50 [9]	pIC50 [10]	pIC50 [11]	pIC50 [12]	pIC50 [13]	pIC50 [14]	pIC50 [15]	pIC50 [16]	pIC50 [17]	pIC50 [18]	pIC50 [19]	pIC50 [20]	pIC50 [21]	also measured	SMILES
7.77	7.14	8.11	< 4.30	7.76	5.14	6.76	7.14	5.86	8.53	7.89	5.22	7.67	7.46	7.99	7.27	> 8.82	7.39	> 8.82	6.63	kinase affinity profile [8]: bind many other CDK family members; pIC50 [22]: 7.51; pIC50 [23]: 7.57; pIC50 [24]: 5.33; pIC50 [25]: 5.81; pIC50 [26]: 5.34; pIC50 [27]: 7.77	CC(O)CCN1CCN(c2ccc(Nc3ncc4ccc(=O)n([C@@H]5CC6CCC5C6)c4n3)cc2)CC1 (stereo partly drawn) [PS005, 8-((2R)-bicyclo[2.2.1]heptan-2-yl)-2-((4-(4-(3-hydroxybutyl)piperazin-1-yl)phenyl)amino)pyrido[2,3-d]pyrimidin-7(8H)-one]
7.67	5.69	5.37	< 4.30	6.56	5.09	5.84	6.40	5.44	8.26	6.65	6.73	7.44	6.95	7.92	6.77	8.74	5.69	8.50	5.55	affinity for CDK5 [8]: presented affinity; pIC50 [22]: 6.10; pIC50 [23]: 6.15; pIC50 [24]: 5.90; pIC50 [25]: 4.87; pIC50 [26]: 4.66; pIC50 [27]: 4.78	CC(=O)c1c(C)c2cnc(Nc3ccc(N4CCNCC4)cc3)nc2n([C@@H]2CC3CCC2C3)c1=O (stereo partly drawn) [PS010, 6-acetyl-8-((2R)-bicyclo[2.2.1]heptan-2-yl)-5-methyl-2-((4-(piperazin-1-yl)phenyl)amino)pyrido[2,3-d]pyrimidin-7(8H)-one]
